Experimental findings from the supplement of paper PMC8149375 are described below.

Bounds are passed on as bounds.

Holding throughout (details): treatment: drug alone; 5 days
Experiment [1] deals with TK-10. As to the kind of experiment: minimum viability across doses, drug alone, relative to DMSO (fraction); higher = less growth inhibition. Here is the method:
(§1)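 Primary HTS: 8 RCC cell lines treated with 8 doses (up to 10 uM) of each library drug alone for 5 days; viability read by CellTiter-Glo and normalised to DMSO. GI50 was fitted with XLfit (4-parameter), AUC is the area under the dose-response curve, and minimum viability is the lowest fraction of DMSO viability across doses.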

The subject of experiment [2] is 786-O. The experiment is described as above. The method, then:
as §1

For experiment [3], the system named is CAKI-1. The experiment is described as above. The method, then: as §1
The test system of experiment [4] is 769-P. The description is as above. Here is the method:
as §1

Experiment [5] concerns ACHN. The description is as above. The method, then: as §1
Experiment [6] deals with SN12C. Described as above. Here is the method:
as §1

The test system of experiment [7] is A498. The experiment is described as above. The method, then:
as §1

For experiment [8], the system named is UO-31. The experiment is described as above. The method, then:
as §1

For experiment [9], the system named is TK-10. As to the kind of experiment: GI50, drug alone; higher = less potent. Here is the method:
as §1

Experiment [10] concerns 786-O. The experiment can be described thus: GI50, drug alone; higher = less potent. Here is the method:
as §1

For experiment [11], the system named is CAKI-1. As to the kind of experiment: GI50, drug alone; higher = less potent. Here is the method: as §1
Experiment [12] deals with 769-P. As to the kind of experiment: GI50, drug alone; higher = less potent. Here is the method:
as §1

Experiment [13] concerns ACHN. As to the kind of experiment: GI50, drug alone; higher = less potent. Here is the method:
as §1

Experiment [14] deals with SN12C. As to the kind of experiment: GI50, drug alone; higher = less potent. Here is the method: as §1
The subject of experiment [15] is A498. As to the kind of experiment: GI50, drug alone; higher = less potent. Here is the method: as §1
Experiment [16] has as its system UO-31. The experiment can be described thus: GI50, drug alone; higher = less potent. The method, then:
as §1

Experiment [17] concerns TK-10. As to the kind of experiment: AUC of dose-response viability curve, drug alone (arbitrary (AUC of normalised viability)); higher = less growth inhibition. Here is the method:
as §1

The subject of experiment [18] is 786-O. The experiment is described as above. The method, then: as §1
The subject of experiment [19] is CAKI-1. The experiment is described as above. Here is the method:
as §1

Experiment [20] relates to 769-P. The experiment is described as above. The method, then:
as §1

Experiment [21] concerns ACHN. The experiment is described as above. Here is the method: as §1
For experiment [22], the system named is SN12C. The experiment is described as above. The method, then: as §1
In experiment [23] the test system is A498. The description is as above. Here is the method:
as §1

In experiment [24] the test system is UO-31. The experiment is described as above. The method, then: as §1

In the case of `COc1cc2ncnc(Nc3ccc(F)c(Cl)c3)c2cc1OCCCN1CCOCC1` [Gefitinib (Iressa)], the “minimum viability across doses” value in the experiment with TK-10 [1] came out at 0.269; with 786-O [2] it was 0.781; with CAKI-1 [3] it was 0.281; in the experiment with 769-P [4], 0.536; with ACHN [5], 0.179; in the experiment on SN12C [6] it was 0.693. The figures for the “minimum viability across doses” value with A498 [7] and in the experiment with UO-31 [8] were 1.05 and 0.872, respectively. Also, the “GI50, drug alone” value in the experiment on TK-10 [9] is 1.52 µM; in the experiment on 786-O [10], above 10 µM; in the experiment with CAKI-1 [11] it was 5.88 µM; with 769-P [12] it was above 10 µM; in the experiment on ACHN [13], 1.24 µM; in the experiment with SN12C [14], above 10 µM. The “GI50, drug alone” value with A498 [15] and in the experiment on UO-31 [16] was above 10 µM each time. The “AUC of dose-response viability curve” value worked out at 2.43 in the experiment on TK-10 [17]; 3.22 in the experiment with 786-O [18]; 3.04 with CAKI-1 [19]; 2.66 with 769-P [20]; 2.4 in the experiment on ACHN [21]; 3.15 with SN12C [22]. Besides, the “AUC of dose-response viability curve” value is 4.53 with A498 [23] and 4.31 in the experiment on UO-31 [24].
With `CN1CCN(C2CCN(C(=O)Nc3cc(Oc4ccc(NC(=O)C5(C(=O)Nc6ccc(F)cc6)CC5)c(F)c4)ccn3)CC2)CC1` [Golvatinib (E7050)], the “minimum viability across doses” value with TK-10 [1] came out at 0.284; with 786-O [2] it was 0.0352; in the experiment on CAKI-1 [3] it was 0.0988; in the experiment on 769-P [4], 0.423; in the experiment on ACHN [5], 0.0761; in the experiment on SN12C [6], 0.346. Besides, the “minimum viability across doses” value with A498 [7] came out at 0.613; with UO-31 [8], 0.471. Also, the “GI50, drug alone” value was found to be 2.59 µM in the experiment on TK-10 [9]; 4.23 µM with 786-O [10]; 3.06 µM in the experiment on CAKI-1 [11]; 9.71 µM with 769-P [12]; 1.51 µM in the experiment on ACHN [13]; 7.83 µM with SN12C [14]. Moreover, the “GI50, drug alone” value in the experiment on A498 [15] is above 10 µM; in the experiment on UO-31 [16] it was 9.86 µM. For the same molecule, the “AUC of dose-response viability curve” value turned out to be 2.56 with TK-10 [17]; 2.78 in the experiment with 786-O [18]; 3.05 in the experiment on CAKI-1 [19]; 3.55 in the experiment on 769-P [20]; 2.67 in the experiment on ACHN [21]; 3.38 in the experiment with SN12C [22]. Besides, the “AUC of dose-response viability curve” value came to 4.37 with A498 [23] and 5.28 in the experiment on UO-31 [24].
For `CCOC(=O)C1=C(N)Oc2ccc(Br)cc2[C@H]1[C@H](C#N)C(=O)OCC` [HA14-1], the “minimum viability across doses” value with TK-10 [1] was 0.948; in the experiment with 786-O [2] it was 0.81; in the experiment on CAKI-1 [3], 0.957; with 769-P [4] it was 0.973; with ACHN [5], 0.852; in the experiment with SN12C [6], 0.867. Besides, the “minimum viability across doses” value came out at 0.885 in the experiment with A498 [7] and 0.891 in the experiment with UO-31 [8]. The “GI50, drug alone” value with TK-10 [9], with 786-O [10], in the experiment with CAKI-1 [11], in the experiment on 769-P [12], in the experiment on ACHN [13] and in the experiment on SN12C [14] was above 10 µM throughout. Further, the “GI50, drug alone” value with A498 [15] and with UO-31 [16] was above 10 µM in each case. Moreover, the “AUC of dose-response viability curve” value in the experiment with TK-10 [17] came out at 3.55; in the experiment on 786-O [18], 3.27; in the experiment on CAKI-1 [19] it was 3.67; with 769-P [20] it was 3.84; in the experiment with ACHN [21] it was 3.35; in the experiment on SN12C [22] it was 3.19. The “AUC of dose-response viability curve” value with A498 [23] is 3.57; with UO-31 [24], 4.2.
On to `COc1ccc(S(=O)(=O)N(C(C)=O)c2ccccc2/C=C/c2cc[n+]([O-])cc2)cc1` [HMN-214], for which the “minimum viability across doses” value with TK-10 [1] was found to be 0.285; in the experiment on 786-O [2], 0.00365; in the experiment with CAKI-1 [3] it was 0.182; in the experiment with 769-P [4], 0.0968; in the experiment on ACHN [5], 0.127; in the experiment with SN12C [6] it was 0.167. Besides, the “minimum viability across doses” value turned out to be 0.119 in the experiment with A498 [7] and 0.00366 in the experiment with UO-31 [8]. The “GI50, drug alone” value in the experiment with TK-10 [9] came out at 0.694 µM; in the experiment on 786-O [10], 0.116 µM; in the experiment with CAKI-1 [11] it was 0.293 µM; with 769-P [12], 0.541 µM; in the experiment with ACHN [13], 0.262 µM; in the experiment with SN12C [14], 0.714 µM. For the same molecule, the “GI50, drug alone” value in the experiment with A498 [15] was 0.378 µM; with UO-31 [16], 0.455 µM. In addition, the “AUC of dose-response viability curve” value in the experiment with TK-10 [17] came to 2.14; with 786-O [18] it was 1.3; in the experiment with CAKI-1 [19] it was 2.1; in the experiment on 769-P [20] it was 2.36; with ACHN [21], 2.14; in the experiment with SN12C [22], 2.47. Besides, the entries for the “AUC of dose-response viability curve” value with A498 [23] and in the experiment on UO-31 [24] were 2.36 and 2.75, respectively.
